Like-named read-outs stand apart in the source and are kept apart here.
Legend:
[1] = Approximate solubility in solvents at 25° C. and 50° C., visual observation; type: physicochemical; settings: thermodynamic from solid
Experimental: The maximum volume of each solvent added was 1 mL. Approximate solubility was determined by visual observation.
Maximum volume of each solvent added was 1 mL. Approximate solubility was determined by visual observation.

[2] = Solubility in buffers, water and simulated vaginal fluid at 37° C.; settings: for solubility at 0.5 h / solubility at 2 h: 37 °C, thermodynamic from solid; for pH of solution at 2 hrs: 37° C.
Experimental: About 4 mg of Compound I Pattern 1 was added into 2 mL of buffer solution.
(§1) Solubility was tested in five media, pH 3.0 citrate buffer, pH 4.5 acetate buffer, pH 6.8 phosphate buffer, water, simulated vaginal fluid (pH 4.2) at 37° C. for 0.5 h and 2 h.
The salt amount used is equivalent to 10 mg anhydrous free base. […] The obtained clear solutions were analyzed by pH meter for pH, and solubility was determined by observation.
as §1

[3] = Hygroscopicity by DVS at 25° C.; type: physicochemical; settings: DVS 25° C.; for D. (%) Cycle 1: Desorption cycle 1; for D. (%) Cycle 2: Desorption cycle 2; for S. (%) Cycle 1: Sorption cycle 1; for S. (%) Cycle 2: Sorption cycle 2
Experimental: Hygroscopicity was investigated by DVS at 25° C., using the following method: […]

[4] = Behavior under compression, grinding simulation and granulation simulation (XRPD); type: physicochemical
Experimental: About 10 mg of Compound I monofumarate Pattern 1 (Example 7) was compressed for 5 minutes at 10 MPa with a hydraulic press. XRPD characterization was performed to investigate the polymorphic behavior under compression.
About 10 mg of Compound I monofumarate Pattern 1 (Example 7) was ground manually with a mortar and pestle for 5 min. Form transformation and degree of crystallinity was evaluated by XRPD.
Water or ethanol was added drop wise to about 10 mg of Compound I monofumarate Pattern 1 (Example 7) until solids were wetted sufficiently. The samples were ground manually with a mortar and pestle for 3 minutes. Samples are dried under ambient condition for 10 min. Form transformation and degree of crystallinity were evaluated by XRPD.

[5] = Tablet stability study (purity by HPLC); type: physicochemical
Experimental: Tablets were prepared using the excipients and excipient ratios shown in the first column of the following tables. The tablets were then stored under the conditions indicated and periodically sampled and tested for purity by HPLC.

[6] = Bulk stability (accelerated stability, one week; HPLC and XRPD)
Experimental: Bulk stability: Accelerated stability experiments were conducted at 25° C./92% RH and 40° C./75% RH in an open container, 60° C. in a tight container for one week.
Samples were characterized by XRPD and HPLC and inspected for color change.
Accelerated stability experiments were conducted at 25° C./92% RH in an open container, at 40° C./75% RH in an open container, and at 60° C. in a tight container for one week.

[7] = pH 4.2, fassgf or other biorelevant
[8] = ground manually with mortar and pestle for 5 min
[9] = excipients PC (7.5%) + MCC (91.46%) + MgS (1%)
[10] = excipients PC (7.5%) + Mannitol (91.46%) + MgS (1%)
[11] = excipients PEO-15 (25%) + MCC (74%) + MgS (1%)
[12] = excipients PEO-15 (25%) + Mannitol (74%) + MgS (1%)
[13] = 25° C., 92% RH, open container, one week
[14] = 40° C., 75% RH, open container, one week
[15] = 60° C., tight container, one week

CCOC(=O)[C@H](C)NP(=O)(COCCn1cnc2c(OC)nc(N)nc21)OCc1ccccc1.O=C(O)/C=C/C(=O)O (mixture of isomers) [Compound I monofumarate, (±)-(2S)-Ethyl-2-((((2-(2-amino-6-methoxy-9H-purin-9-yl)-ethoxy)-methyl)-(benzyloxy)-phosphoryl)-amino)-propionate monofumarate]
solubility ([1]; 25 °C, organic solvent or mixture, Table 14, ACN, 25° C., read-out: Solubility (mg/mL) 25° C.): 20 to 25 mg/mL
solubility ([1]; 25 °C, organic solvent or mixture, Table 14, Acetone, 25° C., read-out: Solubility (mg/mL) 25° C.): 50 to 100 mg/mL
solubility ([1]; 25 °C, organic solvent or mixture, Table 14, DCM, 25° C., read-out: Solubility (mg/mL) 25° C.): < 2 mg/mL
solubility ([1]; 25 °C, organic solvent or mixture, Table 14, EA, 25° C., read-out: Solubility (mg/mL) 25° C.): < 2 mg/mL
solubility ([1]; 25 °C, organic solvent or mixture, Table 14, EtOH, 25° C., read-out: Solubility (mg/mL) 25° C.): > 100 mg/mL
solubility ([1]; 25 °C, organic solvent or mixture, Table 14, Heptanes, 25° C., read-out: Solubility (mg/mL) 25° C.): < 2 mg/mL
solubility ([1]; 25 °C, organic solvent or mixture, Table 14, IPA, 25° C., read-out: Solubility (mg/mL) 25° C.): 50 to 100 mg/mL
solubility ([1]; 25 °C, organic solvent or mixture, Table 14, IPAc, 25° C., read-out: Solubility (mg/mL) 25° C.): < 2 mg/mL
solubility ([1]; 25 °C, organic solvent or mixture, Table 14, MEK, 25° C., read-out: Solubility (mg/mL) 25° C.): 20 to 25 mg/mL
solubility ([1]; 25 °C, organic solvent or mixture, Table 14, MTBE, 25° C., read-out: Solubility (mg/mL) 25° C.): < 2 mg/mL
solubility ([1]; 25 °C, organic solvent or mixture, Table 14, MeOH, 25° C., read-out: Solubility (mg/mL) 25° C.): > 100 mg/mL
solubility ([1]; 25 °C, organic solvent or mixture, Table 14, THF, 25° C., read-out: Solubility (mg/mL) 25° C.): > 100 mg/mL
solubility ([1]; 25 °C, organic solvent or mixture, Table 14, Toluene, 25° C., read-out: Solubility (mg/mL) 25° C.): < 2 mg/mL
solubility ([1]; 25 °C, water, Table 14, Water, 25° C., read-out: Solubility (mg/mL) 25° C.): 14 to 17 mg/mL
solubility ([1]; 50 °C, organic solvent or mixture, Table 14, ACN, 50° C., read-out: Solubility (mg/mL) 50° C.): 20 to 33 mg/mL
solubility ([1]; 50 °C, organic solvent or mixture, Table 14, Acetone, 50° C., read-out: Solubility (mg/mL) 50° C.): 125 to 167 mg/mL
solubility ([1]; 50 °C, organic solvent or mixture, Table 14, DCM, 50° C., read-out: Solubility (mg/mL) 50° C.): < 10 mg/mL
solubility ([1]; 50 °C, organic solvent or mixture, Table 14, EA, 50° C., read-out: Solubility (mg/mL) 50° C.): < 10 mg/mL
solubility ([1]; 50 °C, organic solvent or mixture, Table 14, EtOH, 50° C., read-out: Solubility (mg/mL) 50° C.): 250 to 500 mg/mL
solubility ([1]; 50 °C, organic solvent or mixture, Table 14, Heptanes, 50° C., read-out: Solubility (mg/mL) 50° C.): < 10 mg/mL
solubility ([1]; 50 °C, organic solvent or mixture, Table 14, IPA, 50° C., read-out: Solubility (mg/mL) 50° C.): 71 to 84 mg/mL
solubility ([1]; 50 °C, organic solvent or mixture, Table 14, IPAc, 50° C., read-out: Solubility (mg/mL) 50° C.): < 10 mg/mL
solubility ([1]; 50 °C, organic solvent or mixture, Table 14, MEK, 50° C., read-out: Solubility (mg/mL) 50° C.): 22 to 25 mg/mL
solubility ([1]; 50 °C, organic solvent or mixture, Table 14, MTBE, 50° C., read-out: Solubility (mg/mL) 50° C.): < 10 mg/mL
solubility ([1]; 50 °C, organic solvent or mixture, Table 14, MeOH, 50° C., read-out: Solubility (mg/mL) 50° C.): > 500 mg/mL
solubility ([1]; 50 °C, organic solvent or mixture, Table 14, THF, 50° C., read-out: Solubility (mg/mL) 50° C.): 250 to 500 mg/mL
solubility ([1]; 50 °C, organic solvent or mixture, Table 14, Toluene, 50° C., read-out: Solubility (mg/mL) 50° C.): < 10 mg/mL
solubility ([1]; 50 °C, water, Table 14, Water, 50° C., read-out: Solubility (mg/mL) 50° C.): 22 to 25 mg/mL
solubility at 0.5 h ([2]; pH 3, aqueous buffer): > 2 mg/mL
solubility at 2 h ([2]; pH 3, aqueous buffer): > 2 mg/mL
solubility at 0.5 h [2, 7]: > 2 mg/mL
solubility at 2 h [2, 7]: > 2 mg/mL
solubility at 0.5 h ([2]; pH 4.5, aqueous buffer): > 2 mg/mL
solubility at 2 h ([2]; pH 4.5, aqueous buffer): > 2 mg/mL
solubility at 0.5 h ([2]; pH 6.8, aqueous buffer): > 2 mg/mL
solubility at 2 h ([2]; pH 6.8, aqueous buffer): > 2 mg/mL
solubility at 0.5 h ([2]; water): > 2 mg/mL
solubility at 2 h ([2]; water): > 2 mg/mL
pH of solution at 2 hrs ([2]; Simulated vaginal fluid (pH adjusted with 0.2N NaOH)): (5.39)
pH of solution at 2 hrs ([2]; Water): (3.11)
pH of solution at 2 hrs ([2]; pH 3.0 100 mM citrate buffer): (3.05)
pH of solution at 2 hrs ([2]; pH 4.5 50 mM acetate buffer): (4.36)
pH of solution at 2 hrs ([2]; pH 6.8 50 mM phosphate buffer): (6.49)
D. (%) Cycle 1 ([3]; 0% RH): 0.49%
D. (%) Cycle 1 ([3]; 10% RH): 0.62%
D. (%) Cycle 1 ([3]; 20% RH): 0.71%
D. (%) Cycle 1 ([3]; 30% RH): 0.81%
D. (%) Cycle 1 ([3]; 40% RH): 0.93%
D. (%) Cycle 2 ([3]; 0% RH): 0.09%
D. (%) Cycle 2 ([3]; 10% RH): 0.15%
D. (%) Cycle 2 ([3]; 20% RH): 0.35%
D. (%) Cycle 2 ([3]; 30% RH): 0.47%
D. (%) Cycle 2 ([3]; 40% RH): 0.56%
D. (%) Cycle 2 ([3]; 50% RH): 0.67%
D. (%) Cycle 2 ([3]; 60% RH): 0.85%
D. (%) Cycle 2 ([3]; 70% RH): 1.04%
D. (%) Cycle 2 ([3]; 80% RH): 1.30%
D. (%) Cycle 2 ([3]; 90% RH): 1.84%
D. (%) Cycle 2 ([3]; 95% RH): 2.89%
S. (%) Cycle 1 ([3]; 0% RH): 0.49%
S. (%) Cycle 1 ([3]; 10% RH): 0.56%
S. (%) Cycle 1 ([3]; 20% RH): 0.66%
S. (%) Cycle 1 ([3]; 30% RH): 0.76%
S. (%) Cycle 1 ([3]; 40% RH): 0.86%
S. (%) Cycle 1 ([3]; 50% RH): 0.71%
S. (%) Cycle 1 ([3]; 60% RH): 0.85%
S. (%) Cycle 1 ([3]; 70% RH): 1.02%
S. (%) Cycle 1 ([3]; 80% RH): 1.27%
S. (%) Cycle 1 ([3]; 90% RH): 1.78%
S. (%) Cycle 1 ([3]; 95% RH): 2.89%
S. (%) Cycle 2 ([3]; 0% RH): 0.09%
S. (%) Cycle 2 ([3]; 10% RH): 0.18%
S. (%) Cycle 2 ([3]; 20% RH): 0.27%
S. (%) Cycle 2 ([3]; 30% RH): 0.37%
S. (%) Cycle 2 ([3]; 40% RH): 0.47%
water uptake ([3]; up to 95% RH): about 2.9%
degree of crystallinity on grinding (XRPD) [4, 8]: crystallinity slightly decreased
form transformation on grinding (XRPD) [4, 8]: no form change was observed
form transformation on granulation simulation (XRPD) ([4]; wetted with water or ethanol, ground 3 minutes, dried 10 min): neither in ethanol, nor in water form change was observed
purity by HPLC, 0 months [5, 9]: 99.81
purity by HPLC, 1 month 25 C./60% RH [5, 9]: 98.04
purity by HPLC, 1 month 40 C./75% RH [5, 9]: 84.92
purity by HPLC, 0 months [5, 10]: 99.61
purity by HPLC, 1 month 25 C./60% RH [5, 10]: 98.77
purity by HPLC, 1 month 40 C./75% RH [5, 10]: 85.26
purity by HPLC, 0 months [5, 11]: 99.03
purity by HPLC, 1 month 25 C./60% RH [5, 11]: 97.76
purity by HPLC, 1 month 40 C./75% RH [5, 11]: 83.13
purity by HPLC, 0 months [5, 12]: 97.95
purity by HPLC, 1 month 25 C./60% RH [5, 12]: 97.04
purity by HPLC, 1 month 40 C./75% RH [5, 12]: 87.09
XRPD after storage ([6]; 25° C., 84% RH, open container, 2 days): No change
HPLC (purity) after storage [6, 13]: 98.2%
XRPD after storage [6, 13]: No change
HPLC (purity) after storage [6, 14]: 95.6%
XRPD after storage [6, 14]: No change
HPLC (purity) after storage [6, 15]: 95.5%
XRPD after storage [6, 15]: No change
HPLC (purity), Initial ([6]; initial, before storage): 98.6%

— patent US20240139221A1, “TREATMENT OF HPV-INDUCED NEOPLASIA” (priority 2022, published 2024)
